Measurements as given in PubChem BioAssay (NCI).
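Protocol summary: plate cells (96-well), add compound at 5 concentrations, incubate 48 h, interpolate endpoints linearly. GI50: concentration for 50% inhibition of growth. TGI is the concentration that stops growth completely.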

How the values were obtained:
Experiment in all cases: growth of human tumour cells (NCI), 48 h
[1] = tested on: CAKI-1 renal
[2] = tested on: SK-MEL-28 melanoma
[3] = tested on: HL-60(TB) leukemia
[4] = tested on: K-562 leukemia
[5] = tested on: UO-31 renal
[6] = tested on: HCT-15 colon
[7] = tested on: CCRF-CEM leukemia
[8] = tested on: HCC-2998 colon
[9] = tested on: SK-MEL-5 melanoma
[10] = tested on: TK-10 renal

Structure (SMILES) | GI50 [1] [µM] | TGI [1] [µM] | GI50 [2] [µM] | TGI [2] [µM] | GI50 [3] [µM] | TGI [3] [µM] | GI50 [4] [µM] | TGI [4] [µM] | GI50 [5] [µM] | TGI [5] [µM] | GI50 [6] [µM] | TGI [6] [µM] | GI50 [7] [µM] | TGI [7] [µM] | GI50 [8] [µM] | TGI [8] [µM] | GI50 [9] [µM] | TGI [9] [µM] | GI50 [10] [µM] | TGI [10] [µM]
C/C(=N/O)c1cccc(Nc2cc(-n3nnc4ccccc43)nc3ccccc23)c1 | 16.8 | 43.5 | 21.1 | > 68 | 13.1 | 49.9 | 5.91 | 82.1 | 25 | > 100 | 11.4 | 32.8 | 3.98 | 18.6 | 10.5 | 23.2 | 3.78 | 13.7 | 13.6 | 50.2
O=c1ncccn1[C@@H]1O[C@H](CO)[C@H](O)C1O (some centres undefined) |  | > 100 |  | > 100 |  | > 100 |  | > 100 |  | > 100 |  | > 100 |  | > 100 |  | > 100 |  | > 100 |  | > 100
Cn1c(=O)nc2n(-c3ccc(O)cc3)c3ccccc3nc-2c1=O |  | > 100 |  | > 100 |  | > 100 |  | > 100 |  | > 100 |  | > 100 |  | > 100 |  | > 100 |  | > 100 |  | > 100
CCSC1=NC2C(N(CC)C(=O)N2CC)N1/N=C/C=C/c1ccccc1[N+](=O)[O-] (centres undefined) | 0.0647 | > 100 | 5.83 | > 100 | 0.205 | 0.502 | 0.0583 | > 100 | 0.664 | > 100 | 0.204 | > 100 | 0.331 | > 100 | 0.362 | 39.6 | 0.112 | 0.538 | 36.8 | > 100
C=C(c1ccccc1)C1(O)CCCCC1N (centres undefined) |  | > 100 |  | > 100 |  | 43.5 |  | > 100 |  | > 100 |  | > 100 |  | 95.3 |  | > 100 |  | > 100 |  | > 100
FC(F)(F)c1cccc(-c2nc3nc(Cl)c(Cl)nc3[nH]2)c1 |  | 11 |  | 27.3 |  | 4.7 |  | 17 |  | 3.88 |  | > 38.6 |  | 7.99 |  | 8.04 |  | 3.16 |  | > 76.1
CCOc1ccccc1CCN=C1NC(=O)/C(=C/c2ccc3ncccc3c2)S1 | 0.75 | > 7.13 | 5.22 | > 24.1 | 0.789 | 2.65 | 0.84 | 19.8 | 1.31 | 15.9 | 0.777 | > 25 | 1.05 | 7.12 | 3.05 | 11.8 | 2.05 | 15.2 | 1.35 | > 23.3
CCc1c2c(nc3ccc(OCc4ccc(B(O)O)cc4)cc13)-c1cc3c(c(=O)n1C2)COC(=O)[C@]3(O)CC | < 0.0143 | 0.361 | 0.477 | > 100 | 0.0353 | > 100 | 0.0792 | > 100 | 0.031 | 0.913 | 0.353 | > 43 | < 0.01 | > 100 | 0.398 | > 66.1 | 0.0244 | 0.173 | 0.226 | 
Cn1c(=O)c(N=Nc2c(=O)n(C)c(=O)n3c2[nH]c2ccccc23)c2[nH]c3ccccc3n2c1=O |  | > 100 |  | > 100 |  | > 100 |  | > 100 |  | > 100 |  | > 100 |  | > 100 |  | > 100 |  | > 100 |  | > 100
CCN1C(=O)N(CC)C2C1NN=c1s/c(=C\c3ccc(Cl)cc3Cl)c(=O)n12 (centres undefined) | 0.0396 | 25.7 | 2.48 | > 100 | 0.0227 | 0.0534 | 0.0309 | 28 | 0.167 | 60.4 | 0.035 | > 100 | 0.0361 | > 100 | 0.0367 | 10.9 | 0.0247 | 0.0763 | 13.4 | 59.3
CCc1cccc(C)c1NS(=O)(=O)c1ccccc1 |  | > 100 |  | > 100 |  | > 100 |  | > 100 |  | > 100 |  | > 100 |  | > 100 |  | > 100 |  | > 100 |  | > 100
C[N+](C)(C)CCC(=O)CC[N+](C)(C)C |  | 29.2 |  | 50.1 |  | 17.5 |  | 24.3 |  | > 100 |  | 42.9 |  | 7.42 |  | 53.9 |  | > 100 |  | 34.6
C=C1CCC2C3(C)COC(C)(C)OC3CCC2(C)C1C/C=C1/C(=O)OCC1OC(C)=O (centres undefined) | 4.92 | 13 | 2.21 | 4.94 | 2.55 | 7.14 | 2.85 | 23.2 | 6.27 | 15.5 | 1.61 | 4.19 | 1.81 | 11.5 | 15.2 | 28.8 | 4.8 | 16.4 | 5.24 | 16.3
COC(=O)/C(=N\NC(C)(C)C)C(C(=O)OC)C(=O)C(=O)Nc1cc(Cl)ccc1Cl (centres undefined) |  | > 100 |  | > 100 |  | > 100 |  | > 100 |  | > 100 |  | > 100 |  | > 100 |  | > 100 |  | > 100 |  | > 100
CC(CO)Nc1cc(-c2[nH]c3cccnc3c2-c2ccc(F)cc2)ccn1 (centres undefined) | 8.23 | > 25 | > 25 | > 25 | > 25 | > 25 | 23.4 | > 25 | 3.89 | > 25 | 10.4 | > 25 | > 25 | > 25 | > 25 | > 25 | 10.3 | > 25 | 6.86 | > 25
COc1ccc2nccc(C3=CCC4CCN(C(=O)c5ccccc5)C3C4)c2c1 (centres undefined) |  | > 100 |  | > 100 |  | > 100 |  | > 100 |  | > 100 |  | > 100 |  | > 100 |  | > 100 |  | > 100 |  | > 100
C1CSCCCSCCCSCCCSCCCSCCCSCCCSCCCSC1 |  | > 100 |  | > 100 |  | > 100 |  | > 100 |  | > 100 |  | > 100 |  | > 100 |  | > 100 |  | > 100 |  | > 100
O=C(Nc1cccc(Cl)c1)Nn1cnnc1 | > 50 | > 100 | > 50 | > 100 | > 50 | > 100 | > 50 | > 100 | > 50 | > 100 | > 50 | > 100 | > 50 | > 100 | > 50 | > 100 | > 50 | > 100 | > 50 | > 100
C=CCc1c(Cl)nc(Cl)nc1Cl |  | 0.0367 |  | 1.93 |  | > 100 |  | 0.125 |  | 0.165 |  | 0.938 |  | 0.0234 |  | 3.4 |  | 0.301 |  | 3.35
